This note sets out measurements from US10787462B2, “Heterocyclic compound” (TAKEDA PHARMACEUTICAL COMPANY LIMITED, priority 2015, dated 2020).

The test addresses T1, human RIPK1 (1-375) (Homo sapiens, UniProt Q13546).
T1 construct: human RIPK1 (1-375) gene; GST; made in house; host or cells: Sf-9 insect cells
T1 sequence (Q13546 1-375): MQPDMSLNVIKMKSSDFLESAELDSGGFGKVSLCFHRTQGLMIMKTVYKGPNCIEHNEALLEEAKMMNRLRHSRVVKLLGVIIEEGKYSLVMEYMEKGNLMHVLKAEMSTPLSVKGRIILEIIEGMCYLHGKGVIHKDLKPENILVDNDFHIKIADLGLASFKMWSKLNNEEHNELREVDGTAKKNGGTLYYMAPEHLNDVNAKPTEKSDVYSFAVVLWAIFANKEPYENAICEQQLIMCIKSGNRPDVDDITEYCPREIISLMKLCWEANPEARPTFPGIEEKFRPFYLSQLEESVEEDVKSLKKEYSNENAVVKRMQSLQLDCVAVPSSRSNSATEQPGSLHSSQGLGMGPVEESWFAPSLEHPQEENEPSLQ
Kind of test: Human RIPK1 enzyme inhibitory effect (ADP-Glo Kinase Assay). The test is classed as biochemical. The conditions noted are these: well without enzyme = 100% inhibition; for inhibition at 10 µM: read-out: human RIPK1 enzyme inhibitory effect at 10 μM (% inhibition), 10 μM test compound; for human RIPK1 enzyme inhibitory effect at 10 μM (% inhibition): 10 μM test compound. The gist of the method:
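ADP-Glo luminescence read-out of ADP formed over 120 min at room temperature after adding 0.6 mM ATP solution (stock concentration). Compound and Sf-9-expressed, GST-purified RIPK1 (1-375) were first incubated together for 20 min in HEPES pH 7.5 buffer with MgCl2, Tween-20 and DTT.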
Background: ADP-Glo first removes unused ATP, then detects ADP through luciferase.

On to `CN1C(=O)C(N2CCc3c(nn(Cc4ccccc4F)c3Cl)C2=O)CCc2cnccc21` (stereo not drawn) [Example 105, 3-(3-chloro-2-(2-fluorobenzyl)-7-oxo-2,4,5,7-tetrahydro-6H-pyrazolo[3,4-c]pyridin-6-yl)-1-methyl-1,3,4,5-tetrahydro-2H-pyrido[4,3-b]azepin-2-one], for which the inhibition (as a rule, the relative decrease from the control value, in per cent) at 10 µM came out at 99%.

For `CN1C(=O)C(N2CCc3c(nn(Cc4ccccc4F)c3Cl)C2=O)CCc2cnccc21` (stereo not drawn) [Example 106, 3-(3-chloro-2-(2-fluorobenzyl)-7-oxo-2,4,5,7-tetrahydro-6H-pyrazolo[3,4-c]pyridin-6-yl)-1-methyl-1,3,4,5-tetrahydro-2H-pyrido[4,3-b]azepin-2-one], the “human RIPK1 enzyme inhibitory effect at 10 μM (% inhibition)” value is reported as 95%.

Regarding `CN1C(=O)[C@@H](N2CCc3c(nn(Cc4ccccc4)c3Cl)C2=O)COc2cc(-c3cnn(C)c3)ccc21` [Example 107, (3S)-3-(2-benzyl-3-chloro-7-oxo-2,4,5,7-tetrahydro-6H-pyrazolo[3,4-c]pyridin-6-yl)-5-methyl-8-(1-methyl-1H-pyrazol-4-yl)-2,3-dihydro-1,5-benzoxazepin-4(5H)-one], the inhibition at 10 µM stood at 100%.

On to `CN1C(=O)[C@@H](N2CCc3c(nn(Cc4ccccc4)c3Cl)C2=O)COc2cc(-c3ccn(C)n3)ccc21` [Example 108, (3S)-3-(2-benzyl-3-chloro-7-oxo-2,4,5,7-tetrahydro-6H-pyrazolo[3,4-c]pyridin-6-yl)-5-methyl-8-(1-methyl-1H-pyrazol-3-yl)-2,3-dihydro-1,5-benzoxazepin-4(5H)-one], for which the inhibition at 10 µM was 100%.

`Cc1c2c(nn1Cc1ccccc1F)C(=O)N([C@H]1COc3cc(Br)ccc3N(C)C1=O)CC2` [Example 109, (3S)-8-bromo-3-(2-(2-fluorobenzyl)-3-methyl-7-oxo-2,4,5,7-tetrahydro-6H-pyrazolo[3,4-c]pyridin-6-yl)-5-methyl-2,3-dihydro-1,5-benzoxazepin-4(5H)-one]: the inhibition at 10 µM worked out at 100%.

Turning to `CN1C(=O)[C@@H](N2CCc3cn(Cc4c(F)cccc4F)nc3C2=O)COc2cc(Br)ccc21` [Example 110, (3S)-8-bromo-3-(2-(2,6-difluorobenzyl)-7-oxo-2,4,5,7-tetrahydro-6H-pyrazolo[3,4-c]pyridin-6-yl)-5-methyl-2,3-dihydro-1,5-benzoxazepin-4(5H)-one], the inhibition at 10 µM came to 100%.

For `CN1C(=O)C(N2CCc3c(nn(Cc4ccccc4)c3Cl)C2=O)CCc2cn(C)nc21` (stereo not drawn) [Example 111, 6-(2-benzyl-3-chloro-7-oxo-2,4,5,7-tetrahydro-6H-pyrazolo[3,4-c]pyridin-6-yl)-2,8-dimethyl-2,5,6,8-tetrahydropyrazolo[3,4-b]azepin-7(4H)-one], the “human RIPK1 enzyme inhibitory effect at 10 μM (% inhibition)” value turned out to be 99%.

In the case of `Cc1c2c(nn1Cc1ccccc1F)C(=O)N([C@H]1COc3cc(C#N)ccc3N(C)C1=O)CC2` [Example 112, (3S)-3-(2-(2-fluorobenzyl)-3-methyl-7-oxo-2,4,5,7-tetrahydro-6H-pyrazolo[3,4-c]pyridin-6-yl)-5-methyl-4-oxo-2,3,4,5-tetrahydro-1,5-benzoxazepine-8-carbonitrile], the inhibition at 10 µM is 100%.

For the compound `CN1C(=O)C(N2CCc3c(nn(Cc4ccccc4)c3Cl)C2=O)CCc2cn(C)nc21` (stereo not drawn) [Example 113, 6-(2-benzyl-3-chloro-7-oxo-2,4,5,7-tetrahydro-6H-pyrazolo[3,4-c]pyridin-6-yl)-2,8-dimethyl-2,5,6,8-tetrahydropyrazolo[3,4-b]azepin-7(4H)-one], the “human RIPK1 enzyme inhibitory effect at 10 μM (% inhibition)” value was 61%.

For `CN1C(=O)C(N2CCc3c(nn(Cc4ccccc4)c3Cl)C2=O)CCc2cn(C)nc21` (stereo not drawn) [Example 114, 6-(2-benzyl-3-chloro-7-oxo-2,4,5,7-tetrahydro-6H-pyrazolo[3,4-c]pyridin-6-yl)-2,8-dimethyl-2,5,6,8-tetrahydropyrazolo[3,4-b]azepin-7(4H)-one], the “human RIPK1 enzyme inhibitory effect at 10 μM (% inhibition)” value is listed as 101%.

On to `CNC(=O)c1ccc2c(c1)OC[C@H](N1CCc3c(nn(Cc4ccccc4F)c3C)C1=O)C(=O)N2C` [Example 115, (3S)-3-(2-(2-fluorobenzyl)-3-methyl-7-oxo-2,4,5,7-tetrahydro-6H-pyrazolo[3,4-c]pyridin-6-yl)-N,5-dimethyl-4-oxo-2,3,4,5-tetrahydro-1,5-benzoxazepine-8-carboxamide], for which the inhibition at 10 µM worked out at 101%.

`CNC(=O)c1ccc2c(c1)OC[C@H](N1CCc3cn(Cc4c(F)cccc4F)nc3C1=O)C(=O)N2C` [Example 116, (3S)-3-(2-(2,6-difluorobenzyl)-7-oxo-2,4,5,7-tetrahydro-6H-pyrazolo[3,4-c]pyridin-6-yl)-N,5-dimethyl-4-oxo-2,3,4,5-tetrahydro-1,5-benzoxazepine-8-carboxamide]: the inhibition at 10 µM is 101%.

Take `CNC(=O)c1ccc2c(c1)OC[C@H](N1CCc3cn(Cc4ccccc4F)nc3C1=O)C(=O)N2C` [Example 117, (3S)-3-(2-(2-fluorobenzyl)-7-oxo-2,4,5,7-tetrahydro-6H-pyrazolo[3,4-c]pyridin-6-yl)-N,5-dimethyl-4-oxo-2,3,4,5-tetrahydro-1,5-benzoxazepine-8-carboxamide]: the inhibition at 10 µM was 101%.

As for `CN1C(=O)[C@@H](N2CCc3c(nn(Cc4ccccc4)c3Cl)C2=O)COc2cc(C(=O)NC3COC3)ccc21` [Example 118, (3S)-3-(2-benzyl-3-chloro-7-oxo-2,4,5,7-tetrahydro-6H-pyrazolo[3,4-c]pyridin-6-yl)-5-methyl-N-(oxetan-3-yl)-4-oxo-2,3,4,5-tetrahydro-1,5-benzoxazepine-8-carboxamide], the inhibition at 10 µM was 98%.

As to `CN1C(=O)C(N2CCc3c(nn(Cc4ccccc4F)c3Cl)C2=O)CCc2nn(C)cc21` (stereo not drawn) [Example 119, 6-(3-chloro-2-(2-fluorobenzyl)-7-oxo-2,4,5,7-tetrahydro-6H-pyrazolo[3,4-c]pyridin-6-yl)-2,4-dimethyl-2,6,7,8-tetrahydropyrazolo[4,3-b]azepin-5(4H)-one], the inhibition at 10 µM was 97%.

As to `CN1C(=O)C(N2CCc3c(nn(Cc4ccccc4F)c3Cl)C2=O)CCc2nn(C)cc21` (stereo not drawn) [Example 120, 6-(3-chloro-2-(2-fluorobenzyl)-7-oxo-2,4,5,7-tetrahydro-6H-pyrazolo[3,4-c]pyridin-6-yl)-2,4-dimethyl-2,6,7,8-tetrahydropyrazolo[4,3-b]azepin-5(4H)-one], the “human RIPK1 enzyme inhibitory effect at 10 μM (% inhibition)” value is 95%.

Regarding `CN1C(=O)C(N2CCc3c(nn(Cc4ccccc4F)c3Cl)C2=O)CCc2nn(C)cc21` (stereo not drawn) [Example 121, 6-(3-chloro-2-(2-fluorobenzyl)-7-oxo-2,4,5,7-tetrahydro-6H-pyrazolo[3,4-c]pyridin-6-yl)-2,4-dimethyl-2,6,7,8-tetrahydropyrazolo[4,3-b]azepin-5(4H)-one], the “human RIPK1 enzyme inhibitory effect at 10 μM (% inhibition)” value was found to be 86%.

Consider `CNC(=O)c1cc2c(cc1F)N(C)C(=O)[C@@H](N1CCc3c(nn(Cc4ccccc4)c3Cl)C1=O)CO2` [Example 122, (3S)-3-(2-benzyl-3-chloro-7-oxo-2,4,5,7-tetrahydro-6H-pyrazolo[3,4-c]pyridin-6-yl)-7-fluoro-N,5-dimethyl-4-oxo-2,3,4,5-tetrahydro-1,5-benzoxazepine-8-carboxamide], for which the inhibition at 10 µM stood at 101%.
